Experimental data reported in PubChem BioAssay (NCI).
Values joined by “and” are separate entries in the source; they are usually repeats but may differ in a detail not shown here. Identical values can stand only once.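 Following 48 hours of exposure in 96-well plates, responses at five concentrations were used to interpolate endpoints linearly. GI50: concentration for 50% inhibition of growth. TGI marks complete inhibition of growth.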

Tests used:
Assay in all cases: inhibition of tumour cell growth, NCI panel, 48 h
EKVX NSCLC = test system: EKVX NSCLC
HS 578T breast = test system: HS 578T breast
RXF 393 renal = test system: RXF 393 renal
SNB-75 CNS = test system: SNB-75 CNS
COLO 205 colon = test system: COLO 205 colon
A549 NSCLC = test system: A549 NSCLC
NCI/ADR-RES ovarian = test system: NCI/ADR-RES ovarian
OVCAR-3 ovarian = test system: OVCAR-3 ovarian
SNB-19 CNS = test system: SNB-19 CNS
NCI-H23 lung = test system: NCI-H23 lung

Structure (SMILES) | GI50 (EKVX NSCLC) | TGI (EKVX NSCLC) [µM] | GI50 (HS 578T breast) | TGI (HS 578T breast) | GI50 (RXF 393 renal) | TGI (RXF 393 renal) | GI50 (SNB-75 CNS) [µM] | TGI (SNB-75 CNS) | GI50 (COLO 205 colon) | TGI (COLO 205 colon) [µM] | GI50 (A549 NSCLC) | TGI (A549 NSCLC) | GI50 (NCI/ADR-RES ovarian) | TGI (NCI/ADR-RES ovarian) [µM] | GI50 (OVCAR-3 ovarian) [µM] | TGI (OVCAR-3 ovarian) | GI50 (SNB-19 CNS) [µM] | TGI (SNB-19 CNS) [µM] | GI50 (NCI-H23 lung) | TGI (NCI-H23 lung) [µM]
Fc1ccc(Nc2nc(Nc3ccc(-c4nc5ccccc5[nH]4)cc3)nc(N3CCCC3)n2)cc1 | 2.27 µM | 12.8 | 2.16 µM | 5.82 µM | 2.17 µM | 4.57 µM | 1.7 | 3.89 µM | 1.81 µM | 3.73 | 3.07 µM | 9.1 µM | 2.89 µM | 12.1 | 2.75 | 6.61 µM | 3.93 | 19.1 | 3.36 µM | 16.8
O=C1c2cccnc2-c2nc(-c3ccc([N+](=O)[O-])cc3)cc3c2c1nc1ccccc13 | 10.7 µM | 44.6 | 4.1 µM | 23.6 µM | 9.37 µM | 37.7 µM | 4.43 | 12.1 µM | 5.54 µM | 11.9 | 2.58 µM | 8.3 µM | 2.44 µM | 10.3 | 0.261 | 1.74 µM | 6.4 | 18.3 | 2.51 µM | 10.1
CC(O)CN(CCN(CC(C)O)CC(C)O)CC(C)O.O=[N+]([O-])O.[Cu+2] (stereo not drawn) | 67.3 µM | > 100 | > 100 µM | > 100 µM | > 100 µM | > 100 µM | > 100 | > 100 µM | > 100 µM | > 100 | 46.5 µM | > 100 µM | > 100 µM | > 100 | > 100 | > 100 µM | 30.5 | 74.5 | > 100 µM | > 100
O=Cc1ccc(C(F)(F)F)cc1.[C-]#[O+].[C-]#[O+].[C-]#[O+].[Cr] | 16.3 µM | 45 | 24.6 µM | 75.9 µM | 18.6 µM | 66.6 µM | 15.6 | 49.5 µM | 27.4 µM | > 100 | 23 µM | > 100 µM | 28.4 µM | > 100 | 25.4 | > 100 µM | 26.7 | 89.6 | 37.1 µM | > 100
CCOC(=O)C(=Cc1ccccc1Br)C(=O)OCC |  | 17.3 |  | 30.9 µM |  | 4.97 µM |  | 75.5 µM |  | 6.77 |  | > 100 µM |  | > 100 |  | 4.7 µM |  | 6.01 |  | 7.79
O=Nc1c(-c2cccc([N+](=O)[O-])c2)nc2ncccn12 | 18.3 µM | 43.3 | 12.8 µM | 47.4 µM |  | 3.01 µM | 10.9 | 23.8 µM | 6.25 µM | 19.9 | 21.8 µM | 56.9 µM | 15.9 µM | 71.7 | 3.22 | 12.5 µM | 18 | 39.6 | 15.1 µM | 34.9
COc1cc(/C=C/C(=O)c2ccc(Nc3nc(Nc4ccc(F)cc4)nc(Nc4ccc(F)cc4)n3)cc2)cc(OC)c1OC | 59.1 µM | > 100 | 16.7 µM | > 100 µM | 2.74 µM | 7.49 µM | > 100 | > 100 µM | 3.5 µM | > 100 | 8.27 µM | > 100 µM | 4.69 µM | > 100 | > 100 | > 100 µM | 76.6 | > 100 | 4.86 µM | > 100
CSC(=S)N/N=C(\C)c1ccccn1 | 0.117 µM | 17.5 | 2.82 µM | 36.3 µM | 0.261 µM | 3.1 µM | 1.47 | 32.3 µM | < 0.01 µM | 11.9 | 0.311 µM | 18 µM | 0.0262 µM | 15.7 | < 0.01 |  | 0.77 | > 72.3 | 0.119 µM | 26.5
Cc1ccc(Cl)cc1Nc1nc(C(F)(F)F)ccc1C(=O)Oc1ccc(Cl)cc1 | 7.26 µM | 22.8 | 3.13 µM | 14.8 µM | 3.97 µM | 16 µM | 6.57 | 23.3 µM | 9.81 µM | > 100 | 4.86 µM | 20.5 µM | 15.6 µM | 46.6 | 2.55 | 8.81 µM | 9.42 | > 100 | 11.7 µM | 27.8
CCOC1NC(=O)Oc2ccccc21 (stereo not drawn) |  | > 100 |  | > 100 µM |  | > 100 µM |  | > 100 µM |  | > 100 |  | > 100 µM |  | > 100 |  | > 100 µM |  | > 100 |  | > 100
Cn1c(=O)c(F)c(Nc2ccc(I)cc2F)c2c(=O)n(C[C@@H](O)CO)cnc21 | 0.042 µM and 0.0485 µM | > 64.1 | 5.17 µM and 1.21 µM | 54.6 µM and > 3.97 µM | 0.16 µM and 0.162 µM | 4 µM and > 2.93 µM | 4.11 | 30.8 µM and > 2.29 µM | < 0.01 µM and 0.00271 µM |  | 0.234 µM and 0.11 µM | 58.7 µM and > 4.08 µM | 12.7 µM and > 2.46 µM | > 100 | 13.6 | 40.4 µM and > 3.85 µM | 4.73 | > 100 | 0.0183 µM and 0.0231 µM | > 46.4
O=C1/C(=C/c2ccc(O)cc2)CCC1CNc1ccc(Cl)cc1 (stereo not drawn) |  | 21.5 |  | > 100 µM |  | 15.6 µM |  | 29.7 µM |  | 3.24 |  | 21.6 µM |  | 20.1 |  | 6.1 µM |  | 28.6 |  | 24.3
Cc1c2c(nn1-c1ccc(S/N=C3\SCC(=O)CN3c3ccccc3)cc1)-c1ccccc1CC2 | > 50 µM | > 50 | 15.5 µM | > 50 µM | 31.5 µM | > 50 µM | > 50 | > 50 µM | > 50 µM | > 50 | > 50 µM | > 50 µM | 14.5 µM | > 50 | > 50 | > 50 µM | > 50 | > 50 | 32.3 µM | > 50
O=C(/C=N/O)c1c(-c2ccccc2)[nH]c(-c2ccccc2)c1-c1ccccc1 |  | 19 |  | 85.2 µM |  | 31.6 µM |  | 55.7 µM |  | 36.6 |  | 45.2 µM |  | 25.5 |  | 58.7 µM |  | 34.2 |  | 21.3
C[n+]1c2ccccc2c(NC2CCNCC2)c2[nH]c3ccccc3c21 | 0.391 µM | 5.39 | 0.116 µM | 0.82 µM |  | 0.46 µM | 0.524 | 2.72 µM | 0.264 µM | 2 | 0.0812 µM | 2.73 µM | > 100 µM | > 100 | 0.969 | 5.87 µM | 0.269 | 2.2 | 0.0944 µM | 0.88
O=C(CC1C(=O)Nc2ccccc2S1=O)Nc1cccc(Cl)c1 (stereo not drawn) |  | > 87.4 |  | > 100 µM |  | 45.6 µM |  | 64.1 µM |  | > 66.1 |  | > 100 µM |  | 49.8 |  | > 79.2 µM |  | > 88.9 |  | > 100
COC(=O)c1c(-c2ccccc2)csc1NC(=O)c1c(-c2ccccc2)noc1C |  | > 100 | > 100 µM | > 100 µM | 0.762 µM | 3.97 µM | 3.59 | > 100 µM | 1.21 µM | > 100 | 0.568 µM | > 100 µM | 1.5 µM | > 100 | 3.79 | > 100 µM | 1.07 | > 100 | > 29.7 µM | > 100
COc1ccc(-n2c(N)c(C(=O)NCCN3CCOCC3)c3nc4ccccc4nc32)cc1OC | 40.2 µM | > 100 | 9.27 µM | > 100 µM | 34.1 µM | > 100 µM | 38.7 | > 100 µM | 6.97 µM | > 100 | 6.08 µM | > 100 µM | 36 µM | > 100 | 20.3 | > 100 µM | 10.9 | > 100 | 38.3 µM | > 100
COC(=O)c1ccc2c(c1)nc(-c1ccc(Cl)cc1)n2-c1cc(C(C)(C)C)[nH]n1 | 3.06 µM | > 100 | 1.72 µM | 7.16 µM | 1.57 µM | 5.77 µM | 2.14 | 12.6 µM | 2.29 µM | 6.04 | 4.03 µM | 94.5 µM | 2.72 µM | 7.35 | 2.35 | 6.13 µM | 4.31 | > 100 | 3.42 µM | 36
Cc1ccc(/C=C(\C#N)n2nnc3cc(F)c(F)cc32)cc1 | 3.86 µM | 41.2 | 4.17 µM | 44.9 µM | 3.28 µM | 13.5 µM | 2.45 | 84.5 µM | 1.82 µM | 3.76 | 2.28 µM | 7.3 µM | 2.53 µM | > 100 | 1.47 | 6.08 µM | 4.58 | 20.9 | 5.21 µM | 28
COC(=O)c1oc2c(C(=O)/C=C/c3ccc(OC)cc3)c(OCCCN3CCCCC3)ccc2c1C | 2.01 µM | 7.18 | 2.58 µM |  | 0.066 µM | 0.487 µM | 1.89 | 6.37 µM | 1.51 µM | 3.13 | 2.04 µM | 5.28 µM | 2.31 µM |  | 1.63 | 3.72 µM | 2.1 | 8.92 | 1.3 µM | 3.47
COc1ccccc1Nc1nc(-c2cc3cccc(C(F)(F)F)c3oc2=O)cs1 | 0.164 µM | > 100 | 0.277 µM | > 81.2 µM | 0.0657 µM | 30.7 µM | 0.0305 | 16.7 µM | 0.172 µM | 0.522 | 0.261 µM | > 100 µM | 0.0468 µM | 5.55 | 0.0624 | 0.203 µM | 1.15 | > 100 | 0.345 µM | > 45.9
Cn1cccc1-c1cc(-c2ccc(Br)cc2)nc(N)c1C#N | > 100 µM | > 100 | > 100 µM | > 100 µM | 30.3 µM | > 100 µM | 22.2 | 84.3 µM | > 100 µM | > 100 | > 100 µM | > 100 µM | > 100 µM | > 100 | > 100 | > 100 µM | > 100 | > 100 | > 100 µM | > 100
CC(=O)Nc1ccc(C(=O)N[C@@H]2C(=O)N3[C@@H]2SC(C)(C)[C@@H]3C(=O)O)cn1 |  | > 100 |  | > 100 µM |  | > 100 µM |  | > 100 µM |  | > 100 |  | > 100 µM |  | > 100 |  | > 100 µM |  | > 100 |  | > 100
